# Patent US20040039060A1, “Inhibitor for enzyme having two divalent metal ions as active centers” (priority 2000, published 2004)
# Like-named read-outs stand apart in the source and are kept apart here.
# Tests used:
# HIV-1 integrase = HIV-1 integrase (Human immunodeficiency virus type 1 group M subtype B, UniProt P04585); assay: HIV-1 integrase inhibition assay (microtiter plate, immobilised substrate DNA, Dig-labelled target DNA, OD 405 nm); format: biochemical
# Description: Substrate DNA and target DNA, which sequences were indicated below, were synthesized by Amersham Pharmacia Biotech and dissolved in KTE buffer (composition: 100 mM KCl, 1 mM EDTA, 10 mM Tris-HCl (pH 7.6)) at concentration of 2 pmol/μl and 5 pmol/μl, respectively. The DNA solutions were annealed with each complement by slowly cooling after heating.
# Streptavidin, obtained from Vector Laboratories, was dissolved in 0.1 M carbonate buffer (composition: 90 mM Na2CO3, 10 mM NaHCO3) at concentration of 40 μg/ml. After coating each well of microtiter plates (obtained from NUNC) with 50 μl of the above solution at 4° C. overnight, each well was washed twice with PBS (composition: 13.7 mM NaCl, 0.27 mM KCl, 0.43 mM Na2HPO4, 0.14 mM KH2PO4) and blocked with 300 μl of 1% skim milk in PBS for 30 min. Additionally, each well was washed twice with PBS and added 50 μl of substrate DNA solution (2 pmol/μl). The microtiter plates were kept at room temperature for 30 min. Then, each well was washed twice with PBS and once with H2O.
# Subsequently, in the each well prepared above were added 45 μl of the reaction buffer prepared from 12 μl of the buffer (composition: 150 mM MOPS (pH 7.2), 75 mM MnCl2, 50 mM 2-mercaptoethanol, 25% glycerol, 500 μg/ml bovine serum albumin-fraction V), 1 μl of target DNA (5 pmol/μl), and 32 μl of the distilled water. Additionally, 6 μl of either a test compound in DMSO or DMSO for positive control(PC) was mixed with the above reaction buffer, then 9 μl of an integrase solution (30 pmol) was added and mixed well. In the well of negative control (NC) was added 9 μl of the integrase dilution buffer (composition: 20 mM MOPS (pH7.2), 400 mM potassium glutamate, 1 mM EDTA, 0.1% NP-40, 20% glycerol, 1 mM DTT, 4M urea).
# The microtiter plates were incubated at 30° C. for 1 hour. The reaction solution was removed and each well was washed twice with PBS. Subsequently, each well of the microtiter plates was filled with 100 μl of anti-digoxigenin antibody labeled with alkaline phosphatase (Sheep Fab fragment: obtained from Boehringer) and incubated at 30° C. for 1 hour. Then, each well was washed twice with 0.05% Tween20 in PBS and once with PBS. Next, 150 μl of the Alkaline phosphatase reaction buffer (composition: 10 mM p-Nitrophenylphosphate (obtained from Vector Laboratories), 5 mM MgCl2, 100 mM NaCl, 100 mM Tris-HCl (pH 9.5)) was added in each well. […] The optical density (OD) at 405 nm of each well was measured and the percent inhibition was determined by the following expression.
# The percent inhibition (%)=100[1-{(C abs.−NC abs.)/(PC abs.−NC abs.)}]
# When the percent inhibition (%) is X % at the concentration of x μg/ml and the percent inhibition (%) is Y % at the concentration of y μg/ml, one of which is more than 50% and the other is less than 50%, IC50 can be determined by the following expression.
# IC50(μg/ml)=x-{(X-50)(x-y)/(X-Y)}
# Compound No. in the Table 1 is the same as compound No. of the above example.
# [1] = UV spectrum measurement with stepwise addition of Mg2+ solution (chelate formation); format: physicochemical; settings: compound 0.05 mmol/l, Mg2+ 0 to 3.6 mol/l, 240 nm to 500 nm, cell length 1 cm
# Description: Compounds C-1, D-2, D-5 and D-6 were employed to determine UV spectra with treating dropwise with metal solutions.
# The UV spectrum measurement was conducted with the cell length of 1 cm at a wavelength of 240 nm to 500 nm. Each test solution was obtained by preparing Solutions A^1, A2, B and C as shown below, adding an indicated volume of Solution A^1 or A2 to 1 ml of Solution B, making the total, volume 10 ml with Solution C. The concentrations of Compounds C-1, D-2, D-5 and D-6 in test solutions here were all adjusted at 0.05 mmol/l, and the concentrations of Mg^2+ were as indicated in Table 5.
# Solution A1: MgCl2 4 mol/l, MOPS 50 mmol/l, NaOH 23.6 mmol/l, Solvent: Water
# Solution A2: MgCl2 1 mol/l, MOPS 50 mmol/l, NaOH 23.6 mmol/l, Solvent: Water
# Solution B: Compound 1 0.5 mmol/l, Solvent: DMSO
# Solution C: NaCl 3 mol/l, MOPS 50 mmol/l, 23.6 mmol/l, Solvent: Water
# For the purpose of indicating the change in the UV spectrum as a result of the increase in the metal ion concentration, one figure contained each UV spectrum curve at various metal ion concentrations.
SMILES,melting point,IC50 (HIV-1 integrase),change in the UV spectrum curve as the metal ion concentration was increased [1],"IC50 (HIV-1 integrase; concentration of the compound at percent inhibition 50%, MnCl2 buffer, 30° C., 1 hour)"
"O=C(O)c1ccnc(C(O)=CC(=O)c2ccc(Cc3ccc(F)cc3)o2)c1 [Compound A-5, 3(4-Carboxypyridin-2-yl)-1-[5-(4-fluorobenzyl)furan-2-yl]-3-hydroxy-propenone]",208 to 210 °C,0.191 µM,,
"O=C(O)C(=O)c1oc2ccc(Cc3ccc(F)cc3)cc2c1O [Compound E-6, [5-(4-Fluorobenzyl)-3-hydroxy-benzofuran-2-yl]-2-oxo-acetic acid]",207 to 210 °C,,,
Cc1cc(C(O)=Cc2cc(CCc3ccccc3)ncn2)no1 [Compound C-6],,2.73 µM,,
"COC(=O)C(=O)c1oc2ccc(OCc3ccc(F)cc3)cc2c1O [Compound E-1, [5-(4-Fluoro-benzyloxy)-3-hydroxy-benzofuran-2-yl]-2-oxo-acetic acid methyl ester]",,7.55 µM,,
O=C(O)/C(O)=C/c1ccc(OCc2ccccc2)cn1 [Compound C-8],,1.7 µM,,
"O=C(O)C(=O)c1oc2ccc(OCc3ccc(F)cc3)cc2c1O [Compound E-2, [5-(4-Fluoro-benzyloxy)-3-hydroxy-benzofuran-2-yl]-2-oxo-acetic acid]",,7.87 µM,,
O=C(O)C(O)=Cc1ccnc(CCc2ccccc2)c1 [Compound D-5],,,1-step change,>100 µg/mL
"O=C(C=C(O)c1ccccn1)c1ccc(Cc2ccc(F)cc2)o1 [Compound A-4, 1-[5-(4-Fluorobenzyl)furan-2-yl]-3-hydroxy-3-(pyridin-2-yl)-propenone]",84 to 85 °C,0.619 µM,,
"O=C(C=C(O)c1ccon1)c1ccc(Cc2ccc(F)cc2)o1 [Compound A-9, 1-[5-(4-Fluorobenzyl)furan-2-yl]-3-hydroxy-3-(isoxazol-3-yl)-propenone]",50 to 52 °C,10.5 µM,,
"O=C(C=C(O)c1ncccc1C(=O)O)c1ccc(Cc2ccc(F)cc2)o1 [Compound B-9, 3-(3-Carboxypyridin-2-yl)-1-[5-(4-fluorobenzyl)furan-2-yl]-3-hydroxy-propenone]",127 to 130 °C,> 272 µM,,
"O=C(/C=C(\O)c1ccc[nH]1)c1ccc(Cc2ccc(F)cc2)o1 [Compound B-6, 1-[5-(4-Fluorobenzyl)furan-2-yl]-3-hydroxy-3-(pyrrol-2-yl)-propenone]",,> 321 µM,,
"O=C(C=C(O)c1cc2ccccc2cn1)c1ccc(Cc2ccc(F)cc2)o1 [Compound A-7, 1-[5-(4-Fluorobenzyl)furan-2-yl]-3-hydroxy-3-(isoquinolin-3-yl)-propenone]",154 to 156 °C,3.75 µM,,
"Cc1cc(C(O)=CC(=O)c2ccc(Cc3ccc(F)cc3)o2)on1 [Compound B-7, 1-[5-(4-Fluorobenzyl)furan-2-yl]-3-hydroxy-3-(3-methylisoxazol-5-yl)-propenone]",106 to 107 °C,> 306 µM,,
"O=C(C=C(O)c1cccnc1)c1ccc(Cc2ccc(F)cc2)o1 [Compound B-4, 1-[5-(4-Fluorobenzyl)furan-2-yl]-3-hydroxy-3-(pyridin-3-yl)-propenone]",53 to 54 °C,> 309 µM,,
"O=C(C=C(O)c1nn[nH]n1)c1ccc(Cc2ccc(F)cc2)o1 [Compound A-1, 1-[5-(4-Fluorobenzyl)furan-2-yl]3-hydroxy-3-(2H-tetrazol-5-yl)-propenone]",121 to 123 °C,1.27 µM,,
"O=C(C=C(O)c1ccco1)c1ccc(Cc2ccc(F)cc2)o1 [Compound B-1, 1-[5-(4-Fluorobenzyl)furan-2-yl]-3-(furan-2-yl)-3-hydroxy-propenone]",44 to 45 °C,> 320 µM,,
O=C(O)C(O)=Cc1cnc(CCc2ccccc2)cn1 [Compound C-7],,2.26 µM,,

SMILES,melting point,IC50 (HIV-1 integrase),change in the UV spectrum curve as the metal ion concentration was increased [1],"IC50 (HIV-1 integrase; concentration of the compound at percent inhibition 50%, MnCl2 buffer, 30° C., 1 hour)"
Cc1cc(C(O)=Cc2cc(CCc3ccccc3)ncn2)on1 [Compound D-1],,> 325 µM,,
OC(=Cc1cc(CCc2ccccc2)ncn1)c1nccs1 [Compound C-4],,1.94 µM,,
O=C(O)C(O)Cc1cc(CCc2ccccc2)ncn1 [Compound D-3],,> 367 µM,,
"O=C(C=C(O)c1cnccn1)c1ccc(Cc2ccc(F)cc2)o1 [Compound A-3, 1-[5-(4-Fluorobenzyl)furan-2-yl]-3-hydroxy-3-(pyrazin-2-yl)-propenone]",127 to 129 °C,1.85 µM,,
OC(=Cc1cc(CCc2ccccc2)ncn1)c1nnn[nH]1 [Compound C-2],,4.76 µM,,
"Cc1cc(C(O)=CC(=O)c2ccc(Cc3ccc(F)cc3)o2)no1 [Compound A-10, 1-[5-(4-Fluorobenzyl)furan-2-yl]-3-hydroxy-3-(5-methylisoxazol-3-yl)-propenone]",95 to 97 °C,5.5 µM,,
"O=C(O)c1ccc(C(O)=CC(=O)c2ccc(Cc3ccc(F)cc3)o2)nc1 [Compound A-6, 3-(5-Carboxypyridin-2-yl)-1-[5-(4-fluorobenzyl)furan-2-yl]-3-hydroxy-propenone]",196 to 198 °C,0.272 µM,,
"O=C(C=C(O)c1ccncc1)c1ccc(Cc2ccc(F)cc2)o1 [Compound B-8, 1-[5-(4-Fluorobenzyl)furan-2-yl]-3-hydroxy-3-(pyridin-4-yl)-propenone]",90 to 92 °C,> 309 µM,,
"O=C(C=C(O)c1ccoc1)c1ccc(Cc2ccc(F)cc2)o1 [Compound B-2, 1-[5-(4-Fluorobenzyl)furan-2-yl]-3-(furan-37yl)-3-hydroxy-propenone]",53 to 55 °C,> 320 µM,,
"COC(=O)C(=O)c1oc2ccc(Cc3ccc(F)cc3)cc2c1O [Compound E-5, [5-(4-Fluoro-benzyl)-3-hydroxy-benzofuran-2-yl]-2-oxo-acetic acid methyl ester]",128 to 130 °C,,,
OC(=Cc1cc(CCc2ccccc2)ncn1)c1cnccn1 [Compound C-5],,5.26 µM,,
"O=C(C=C(O)c1ncccn1)c1ccc(Cc2ccc(F)cc2)o1 [Compound A-2, 1-[5-(4-Fluorobenzyl)furan-2-yl]-3-hydroxy-3-(pyrimidin-2-yl)-propenone]",77 to 80 °C,0.247 µM,,
"O=C(c1ccccn1)c1oc2ccc(Cc3ccc(F)cc3)cc2c1O [Compound E-8, 1-[5-(4-Fluoro-benzyl)-3-hydroxy-benzofuran-2-yl]-1-pyridine-2-yl-methanone]",258 °C (dec.),,,
"Cn1cccc1C(O)=CC(=O)c1ccc(Cc2ccc(F)cc2)o1 [Compound B-5, 1-[5-(4-Fluorobenzyl)furan-2-yl]-3-hydroxy-3-(1-methylpyrrol-2-yl)-propenone]",75 to 76 °C,> 307 µM,,
OC(=Cc1cc(CCc2ccccc2)ncn1)c1ncn[nH]1 [Compound C-3],,1.7 µM,,
"O=C(C=C(O)c1cccs1)c1ccc(Cc2ccc(F)cc2)o1 [Compound B-3, 1-[5-(4-Fluorobenzyl)furan-2-yl]-3-(thiophen-2-yl)-3-hydroxy-propenone]",50 to 52 °C,> 305 µM,,
